The source of these data is patent publication US12414958B2, “Medicament and use thereof for treating bacterial infections involving biofilm” (Debiopharm International S.A., priority 2019, dated 2025).

For assay [1], the system named is ATCC 43300 MRSA strain. The assay can be described thus: In vivo murine model of catheter associated infection, 24 h and 72 h MRSA biofilms. Further details: species or system Staphylococcus aureus. The following applies: for CR (%) cure rate: 5.5-day treatment, percentage of mice without catheter-associated bacteria. The method, then:
(§1) Two experimental settings were used in this study to evaluate the treatment efficacies against early (24h) and/or mature (72h) MRSA catheter formed biofilms. Briefly, mice were anaesthetised by an IP injection of about 120 μl a mix of ketamine (50 mg/kg) and xylazine (10 mg/kg) (4 mL ketamine+2 mL xylazine+10 mL saline). Flank on the right side was shaved and then disinfected by 3 consecutive applications of betadine. A cutaneous and then subcutaneous (SC) incisions of 0.2 cm were made under sterile conditions and a 1 cm segment of polyurethane catheter (Ref. No. ES-04730 Arrow international) cut into 2 longitudinal fragments was inserted SC (into the incision and then pushed further under the skin, about 2 cm away from the incision). The inoculation was done simultaneously by placing 50 μl of the bacterial culture onto the catheter (10^6 CFU of ATCC 43300 MRSA strain). The incision was stitched up and disinfected. The day of the infection was referred to as Day0 (D0). To ensure that the study was conducted in sterile conditions from the start to the end of the experiment, non-infected mice (sentinel group) were included. Treatments started either on D1 or D3 post infection, corresponding to early (24h) or more mature (72h) catheter formed biofilms, respectively, and lasted for 5.5 days (D1-D6) or (D3-D8). In both 24 h and 72h biofilm settings, two groups of infected non-treated animals (Vehicle controls) were evaluated for bacterial counts: at baseline (24h or D1 [for 24-h biofilm] and 72h or D3 [for 72-h biofilm] post infection, i.e. time points corresponding to treatments initiations) and at the termination of treatment duration (D6 [for 24-h biofilm] and D8 [for 72-h biofilm] post infection). Post treatment CFUs were counted on D6 or D8 and results were expressed as Log10 CFU/g of catheter (Mean±SEM). The limit of detection was determined as being 1 Log10 CFU/g of catheter. Changes of CFU/g of catheter (Δ Log10) from the baseline (D1 or D3 for 24-h and 72-h biofilm, respectively) and cure rates (corresponding to the percentage of mice without catheter-associated bacteria within a given treatment group) were also calculated. In vivo induction of antibiotic-resistant bacteria was analysed for all tested antibiotics.
Antibiotics doses were selected according to the effective doses in animals, which approximated the therapeutic human equivalent doses (HED) (Table 1).
Mice received antibiotics on D1, D2, D3, D4, D5 and D6 (only one administration at D6) or D3, D4, D5, D6, D7 and D8 (only one administration at D8). All antibiotics were administered BID IP, except Debio 1450 BES and Vancomycin, which were respectively given PO and SC. Daptomycin was tested as a once daily regimen to avoid tolerability issues. The antibiotics daily dosing was performed with a 10-12 hours interval between the two administrations. For combination therapy, antibiotics were administered simultaneously every 10-12 hours (the time required between the injection of the first antibiotic and the injection of the second antibiotic was less than 30 seconds per mouse).
In each sub-study, animals were randomly assigned to the antibiotic therapies or vehicle controls groups. Dose volumes were calculated according to individual body weight of each animal.
After blood collection, animals were sacrificed by cervical dislocation following anaesthesia. Two fragments of catheter per mouse were collected and were used for bacterial enumeration after sonication. Each fragment of catheter was individually washed under aseptic conditions in an Eppendorf tube (3 successive washing steps with 300 μl sterile saline). After the last wash, the catheter was suspended in 1 mL sterile saline, put in an ultrasonic bath (Advantage Lab) for 3 minutes at room temperature before being vigorously vortexed in order to detach all adherent bacteria from the catheter. Several successive dilutions of this suspension (undiluted, 10-2, […]) were cultured onto Chapman agar plates for 48 h at 37° C. […]

Assay [2] concerns ATCC 43300 MRSA strain. The assay can be described thus: Induction of resistance studies, ex vivo bacterial exposure to 4×MIC (Example 1). It counts as cell-based, Staphylococcus aureus. As to conditions: ex vivo exposure to 4×MIC; single and combination therapy; 24h or 72h biofilm. As for the experimental part:
as §1, with “Treatments started either on D1 or D3 post infection, corresponding to early (24h) or more mature (72h) catheter formed biofilms, respectively, and lasted for 5.5 days (D1-D6) or (D3-D8).” left out

A further assay deals with MRSA 43300. The assay can be described thus: MIC of Debio 1452. The following applies: Staphylococcus aureus. It counts as cell-based.

The structures appear in SMILES notation.

As to `CN[C@H](CC(C)C)C(=O)N[C@H]1C(=O)N[C@@H](CC(N)=O)C(=O)N[C@H]2C(=O)N[C@H]3C(=O)N[C@H](C(=O)N[C@H](C(=O)O)c4cc(O)cc(O)c4-c4cc3ccc4O)[C@H](O)c3ccc(c(Cl)c3)Oc3cc2cc(c3O[C@@H]2O[C@H](CO)[C@@H](O)[C@H](O)[C@H]2O[C@H]2C[C@](C)(N)[C@H](O)[C@H](C)O2)Oc2ccc(cc2Cl)[C@H]1O` [Vancomycin], in the assay on ATCC 43300 MRSA strain [1] (Biofilm (24 h), 5.5-day treatment (D1-D6), BALB/c mice, doses as in Table 2), the “Log10 CFU/g of catheter (D 6) Mean ± SEM” value was 5.08 ± 0.105 Log10 CFU/g of catheter. Also, the “ΔLog10 CFU/g of catheter from (D 1) Mean ± SEM” value in the assay with ATCC 43300 MRSA strain [1] (Biofilm (24 h), 5.5-day treatment (D1-D6), change from baseline D 1, BALB/c mice) was −1.59 ± 0.105 Log10 CFU/g of catheter. Moreover, the “CR (%) cure rate” value in the assay with ATCC 43300 MRSA strain [1] (Biofilm (24 h)) and with ATCC 43300 MRSA strain [1] (Biofilm (72 h)) was 0% in each case. Further, the “Log10 CFU/g of catheter (D 8) Mean ± SEM” value in the assay with ATCC 43300 MRSA strain [1] (Biofilm (72 h), 5.5-day treatment (D3-D8), BALB/c mice, doses as in Table 2) was 4.84 ± 0.077 Log10 CFU/g of catheter. In addition, in the assay with ATCC 43300 MRSA strain [1] (Biofilm (72 h), 5.5-day treatment (D3-D8), change from baseline D 3, BALB/c mice), the “ΔLog10 CFU/g of catheter from (D 3) Mean ± SEM” value is on record as −1.94 ± 0.077 Log10 CFU/g of catheter. Moreover, the “emergence of resistant mutants” value with ATCC 43300 MRSA strain [2] is given as “no emergence of resistant mutants”.
In the case of `Cc1c(CN(C)C(=O)/C=C/c2cnc3c(c2)CCC(=O)N3)oc2ccccc12` [Debio 1452, (E)-N-methyl-N-((3-methylbenzofuran-2-yl)methyl)-3-(7-oxo-5,6,7,8-tetrahydro-1,8-naphthyridin-3-yl) acrylamide], the “emergence of resistant mutants” value in the assay with ATCC 43300 MRSA strain [2] is given as “no emergence of resistant mutants”. In addition, the MIC was found to be 0.0625 µg/mL in the assay with MRSA 43300 (determined in-house) and 0.008 µg/mL in the assay on MRSA 43300 (historical data from the Sponsor).
